Key:
[1] = Solubility of drugs in oils/excipients; format: physicochemical; conditions: shake flask, 25 °C, 48 h, HPLC, n = 3; Figure S1
[2] = ref Hu et al., 2012; cited from earlier work

In the case of `CC(=O)O[C@@]12CO[C@@H]1C[C@H](O)[C@@]1(C)C(=O)[C@H](O)C3=C(C)[C@@H](OC(=O)[C@H](O)[C@@H](NC(=O)OC(C)(C)C)c4ccccc4)C[C@@](O)([C@@H](OC(=O)c4ccccc4)[C@H]21)C3(C)C` [DTX, Docetaxel], the “Solubility among the oils employed (ranking)” value [1] is listed as “highest solubility of 131.62 ± 17.68 in Capryol 90” and the “oral bioavailability of DTX” value [2] is listed as ~5%.

— article PMC6534241 (Drug Delivery, 2019)
